Laboratory results published in patent US20220160686A1, “MACROCYCLIC AZOLOPYRIDINE DERIVATIVES AS EED AND PRC2 MODULATORS” (Fulcrum Therapeutics, Inc., priority 2019, published 2022).
Several values for one entry are separate records, joined by “and”; a condition that tells them apart may be missing. Equal entries are not always repeated. Where two headings read alike, the source gives them in different places.

Experiments:
[1] = molecular target: T1, biotinylated AVI-tagged EED (76-441) (Homo sapiens, UniProt O75530); test: EED binding SPR assay; settings: 1:1 binding model; read-out: KD, equilibrium dissociation constant as measured by surface plasmon resonance (SPR)
T1 construct: GST (N, cleaved yes); made in house; host or cells: E. coli BL21(DE3), co-expressed with pGro7
Description: Biotinylated AVI-tagged EED was produced using standard molecular biology techniques. A pGEX plasmid with a GST-preScission-cleavage-site-AVI-EED(76-441) sequence was placed into E. coli BL21(DE3) cells and co-expressed with pGro7. The E. coli were grown in shaker flasks in LB with ampicillin at 37° C. at 110 rpm to an OD600=0.7. At this time the temperature was lowered to 15° C. and IPTG was added to 0.3 mM. The cells were allowed to express overnight. Cells were then harvested.
For purification, the E. coli cell pellet was lysed into a buffer of 50 mM Tris pH 8.0, 500 mM NaCl, 5% glycerol and 5 mM DTT. The lysate was loaded onto a GSTrap FF column from GE Healthcare. After washing, the bound protein was eluted with 50 mM Tris pH 8.0, 500 mM NaCl, 5% glycerol, 5 mM DTT and 15 mM GSH. The collected fractions were combined and incubated with PreScission enzyme overnight at 4° C. The cleaved protein was then passed through a GSTrap FF column in a buffer of 50 mM Tris pH 8.0, 500 mM NaCl, 5% glycerol and 5 mM DTT. The cleaved protein was confirmed through mass spectrometry. The AVI-EED(76-441) was then buffer exchanged into 50 mM Bicine pH 8.3, 10 mM ATP, 10 mM magnesium acetate and 50 μM D-Biotin. 3 mg of BirA enzyme was added to the system and incubated at 4° C. for 2 hours to biotinylate the AVI-EED(76-441). The biotinylated-AVI-EED(76-441) was then buffer exchanged into 20 mM Tris pH 8.0 and 400 mM NaCl and passed through a size exclusion column of Superdex 200 16/60 Increase. The purified monomeric biotinylated-AVI-EED(76-441) was confirmed through SDS-PAGE, LC-MS and analytical size exclusion chromatography.
All surface plasmon resonance (SPR) assays were performed using a GE Biacore S200 utilizing GE Biotin CAPture chips. Capturing of CAP reagents was performed with a flow rate of 2 μL/min for 90 seconds. For protein capturing, a solution of 50 μg/mL of biotinylated AVI-tagged EED (76-441) in 10 mM HEPES pH 7.4, 150 mM NaCl, 0.05% Tween 20 and 2% DMSO (Running Buffer) was flowed over the chip with a flow rate of 5 μL/min for a contact time of 30 seconds. Final readings were 2200-2400 RU. For compounds, 7 concentrations were made with 3-dilutions using the Running Buffer for a total of 300 μL of each concentration in a 96-well microplate. During the binding experiments, a flow rate of […] was used for an association time of 90 seconds followed by a disassociation time of 180 seconds. The compartment temperature was set at 10° C. with the chip at 25° C. During regeneration the flow rate was set to 30 μL/min for 30 seconds. All fittings were done using a 1:1 binding model.

[2] = test system: human P-glycoprotein HEK cells (HEK-P-gp); test: H3K27me3 immunocytochemistry assay in P-gp expressing HEK293T cells, with or without elacridar; assay type: cell-based; settings: Homo sapiens, 4 days compound treatment
Description: A plasmid encoding the human ABCB1 gene under the control of a CMV promoter was purchased from Origene (Cat #RC216080). The HEK293T cells were purchased from ATCC (Cat #CRL-3216) and were cultured for expansion in the recommended conditions. The HEK293T cells were transfected with 2 ug of the pCMV-ABCB1 plasmid using Lipofectamine 3000 following recommendations from the manufacturer (ThermoFisher Scientific, Cat #L3000008). After 24 h, cells were dissociated, and 5000 cells were seeded on a 10 cm tissue culture dish. On the next day, fresh media containing 5 nM Vinblastine (Sigma, Cat #V1377) was added, and media containing compound was replenished every 72 h. After surviving cells reached confluency, cells were passaged, and lines were maintained in the presence of 2.5 nM Vinblastine until further characterization.
P-gp expressing HEK293T, HUDEP2, and Human Mobilized Peripheral Blood Primary CD34+ cells were cultured for use in an H3K27me3 immunocytochemistry assay. HUDEP2 and Human Mobilized Peripheral Blood Primary CD34+ cells were cultured for use in an HbF immunocytochemistry assay. P-gp expressing HEK293T cells were maintained and passaged every 3-4 days by plating 300,000 viable cells in a T-25 culture flask containing 6 mLs of 293 Passaging Media comprised of DMEM (ThermoFisher #10566016), 10% fetal bovine serum (ThermoFisher #A3160502), 1% penicillin-streptomycin (ThermoFisher #15140122), and 2.5 nM Vinblastine (Sigma #V1377). To evaluate the inhibitory effect of the compounds of the present disclosure and their brain penetrant properties via P-gp mediated efflux, the H3K27me3 immunocytochemistry assay was conducted in the presence or absence of 250 nM of the P-gp inhibitor, elacridar. Poor brain penetrant compounds were expected to show higher potencies in the presence of Elacridar. However, brain penetrant compounds would show similar potencies irrespective of whether Elacridar is present or not. In these experiments plates without elacridar were seeded with P-gp expressing HEK293T cells at 1000 viable cells per well in a poly-d-lysine coated 384-well plate (Corning Cat #356697) in 45 μL of 293 Assay Media comprised of DMEM (ThermoFisher #10566016), 10% fetal bovine serum (ThermoFisher #A3160502), 1% penicillin-streptomycin (ThermoFisher #15140122). A replicate set of plates were seeded under the same conditions with 45 μL of 293 Assay Media supplemented with 250 nM of Elacridar to inhibit P-gp activity. Compounds were serially diluted at 10× concentration in 293 Media, and 5 μL transferred to their respective wells on both sets of plates for a total volume of 50 μL per well. The compound treated HEK293T cells were allowed to incubate for 4 days at 37° C., 85% relative humidity, and 5% CO2 before proceeding to ICC Fix and Stain protocol.
The Fix and Stain Protocol was the same for HEK293T, HUDEP2, and Primary CD34+ cell assays except the specific primary and secondary antibodies used for detection. Following 4 days of compound treatment, the respective plates were washed once with 25 μL of PBS (ThermoFisher #10010023) and fixed with 25 μL of 4% paraformaldehyde (ThermoFisher #28908) for 10 minutes at room temperature. The plates were then washed three times with 25 μL of PBS. Subsequent to that, the cells were permeabilized and blocked for 1 hour at room temperature in 25 μL of Perm/Block buffer comprised of IX PBS, 1% bovine serum albumin (ThermoFisher #A3294), 10% fetal bovine serum (ThermoFisher #A3160502), 0.3M glycine (Sigma #G7126), and 0.1% tween-20 (Sigma #P7949). This was followed by additional washing (three times) of the plates with 25 μL of 0.1% tween in PBS.
For the H3K27me3 assay, the cells were incubated overnight at 4° C. with 25 μL of H3K27me3 Primary Antibody (Cell Signaling #9733) diluted 1:200 in 0.1% tween-20 in PBS. […]

[3] = HEK293, 96 h, without elacridar, read-out: IC50, inhibitory activity on human P-glycoprotein HEK cells (HEK-P-gp)
[4] = HEK293, with 250 nM elacridar, read-out: IC50, inhibitory activity on human P-glycoprotein HEK cells (HEK-P-gp) pretreated with elacridar

T1 sequence (O75530 76-441 limits assumed): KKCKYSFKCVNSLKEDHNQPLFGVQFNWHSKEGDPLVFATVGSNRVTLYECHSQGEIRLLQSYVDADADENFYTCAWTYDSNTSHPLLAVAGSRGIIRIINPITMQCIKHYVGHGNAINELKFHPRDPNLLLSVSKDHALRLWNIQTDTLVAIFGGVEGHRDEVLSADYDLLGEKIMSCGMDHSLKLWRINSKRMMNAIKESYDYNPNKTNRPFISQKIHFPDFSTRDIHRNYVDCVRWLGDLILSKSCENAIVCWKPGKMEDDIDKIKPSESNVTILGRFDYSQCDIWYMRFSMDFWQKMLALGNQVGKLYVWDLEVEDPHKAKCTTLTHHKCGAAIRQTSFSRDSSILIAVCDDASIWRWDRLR

Row | Kd [1] | SMILES | IC50 [2, 3] [µM] | IC50 [2, 4] [µM]
1 | 0.01 to 0.05 µM | Cc1ccnc(-c2cc3c(n4cnnc24)NCc2c(F)ccc4c2C(CO4)CO3)c1 (stereo in doubt) [Compound 149, (S)-12-fluoro-4-(4-methylpyridin-2-yl)-7a,8,13,14-tetrahydro-7H-[1,2,4]triazolo[4',3':1,6]pyrido]3,2-b]benzofuro[4,3-fg][1,4]oxazonine] | > 0.5 | > 0.5
2 | 0.0025 to 0.005 µM | Cc1ccc(C(F)F)c(-c2cc3c(n4cnnc24)NCc2c(F)ccc4c2[C@@H](CO4)CO3)n1 [Compound 144] | 0.1 to 0.5 | 0.1 to 0.5
3 | < 0.0025 µM | Cc1cn(C)c(-c2cc3c(n4cnnc24)NCc2c(F)ccc4c2C(CO4)CO3)n1 (stereo in doubt) [Compound 135, (S)-4-(1,4-dimethyl-1H-imidazol-2-yl)-12-fluoro-7a,8,13,14-tetrahydro-7H-[1,2,4]triazolo[4',3':1,6]pyrido]3,2-b]benzofuro[4,3-fg][1,4]oxazonine] | 0.05 to 0.1 | 0.05 to 0.1
4 | < 0.0025 µM | COc1ccc(-c2cc3c(n4cnnc24)NCc2c(F)ccc4c2[C@H](CO4)CO3)c(C)n1 [Example 106] | 0.05 to 0.1 | 0.025 to 0.05
5 | < 0.0025 µM | CN(C)c1ncc(-c2cc3c(n4cnnc24)NCc2c(F)ccc4c2[C@H](CO4)CO3)cn1 [Example 108] | > 0.5 | > 0.5
6 | 0.005 to 0.01 µM | Cn1nccc1-c1cc2c(n3cc(C(=O)O)nc13)NCc1c(F)ccc3c1[C@@H](CO3)CO2 [Compound 174, (S)-5-fluoro-12-(1-methyl-1H-pyrazol-5-yl)-6,7,15,15a-tetrahydro-1H-benzofuro[4,3-fg]imidazo[r,2′:1,6]pyrido[3,2-b][1,4]oxazonine-10-carboxylic acid] | – | –
7 | < 0.0025 µM | OCc1ncccc1-c1cc2c(n3cnnc13)NCc1c(F)ccc3c1C(CO3)CO2 [Compound 195, (S)-(3-(12-fluoro-7a,8,13,14-tetrahydro-7H-[1,2,4]triazolo[4′,3′:1,6]pyrido[3,2-b]benzofuro[4,3-fg][1,4]oxazonin-4-yl)pyridin-2-yl)methanol] | < 0.025 | 0.05 to 0.1
8 | < 0.0025 µM | Fc1ccc2c3c1CNc1c(cc(-c4cnc(C(F)(F)F)nc4)c4nncn14)OC[C@H]3CO2 [Example 114] | 0.1 to 0.5 | 0.1 to 0.5
9 | < 0.0025 µM | Cn1ncc(O)c1-c1cc2c(n3cnnc13)NCc1c(F)ccc3c1C(CO3)CO2 [Compound 196, (S)-5-(12-fluoro-7a,8,13,14-tetrahydro-7H-[1,2,4]triazolo[4′,3′:1,6]pyrido[3,2-b]benzofuro[4,3-fg][1,4]oxazonin-4-yl)-1-methyl-1H-pyrazol-4-ol] | 0.025 to 0.05 | 0.05 to 0.1
10 | < 0.0025 µM | Fc1ccc2c3c1CNc1c(cc(-c4ncncc4Cl)c4nncn14)OC[C@@H]3CO2 [Compound 163, (S)-4-(5-chloropyrimidin-4-yl)-12-fluoro-7a,8,13,14-tetrahydro-7H-[1,2,4]triazolo[4′,3′:1,6]pyrido[3,2-b]benzofuro[4,3-fg][1,4]oxazonine] | 0.1 to 0.5 | 0.025 to 0.05
11 | < 0.0025 µM | Cc1ncc(-c2cc3c(n4cnnc24)NCc2c(F)ccc4c2[C@@H](CO4)CO3)cc1N [Compound 179, (S)-5-(12-fluoro-7a,8,13,14-tetrahydro-7H-[1,2,4]triazolo[4′,3′:1,6]pyrido[3,2-b]benzofuro[4,3-fg][1,4]oxazonin-4-yl)-2-methylpyridin-3-amine] | > 0.5 | 0.1 to 0.5
12 | < 0.0025 µM | Cn1ncc(C#N)c1-c1cc2c(n3cnnc13)NCc1c(F)ccc3c1C(CO3)CO2 [Compound 170, (S)-5-(12-fluoro-7a,8,13,14-tetrahydro-7H-[1,2,4]triazolo[4′,3′:1,6]pyrido[3,2-b]benzofuro[4,3-fg][1,4]oxazonin-4-yl)-1-methyl-1H-pyrazole-4-carbonitrile] | 0.1 to 0.5 | 0.1 to 0.5
13 | < 0.0025 µM | Fc1ccc2c3c1CNc1c(cc(-c4cnc(C5CC5)nc4)c4nncn14)OC[C@@H]3CO2 [Compound 178, (S)-4-(2-cyclopropylpyrimidin-5-yl)-12-fluoro-7a,8,13,14-tetrahydro-7H-[1,2,4]triazolo[4′,3′:1,6]pyrido[3,2-b]benzofuro[4,3-fg][1,4]oxazonine] | 0.1 to 0.5 | 0.05 to 0.1
14 | 0.0025 to 0.005 µM | Cc1cc(Cl)cnc1-c1cc2c(n3cnnc13)NCc1c(F)ccc3c1[C@@H](CO3)CO2 [Compound 166, (S)-4-(5-chloro-3-methylpyridin-2-yl)-12-fluoro-7a,8,13,14-tetrahydro-7H-[1,2,4]triazolo[4′,3′:1,6]pyrido[3,2-b]benzofuro[4,3-fg][1,4]oxazonine] | > 0.5 | > 0.5
15 | 0.01 to 0.05 µM and < 0.0025 µM | Cn1nc(O)cc1-c1cc2c(n3cnnc13)NCc1c(F)ccc3c1C(CO3)CO2 [Compound 197, (S)-5-(12-fluoro-7a,8,13,14-tetrahydro-7H-[1,2,4]triazolo[4′,3′:1,6]pyrido[3,2-b]benzofuro[4,3-fg][1,4]oxazonin-4-yl)-1-methyl-1H-pyrazol-3-ol] | < 0.025 | 0.05 to 0.1
